Reference: PubChem BioAssay AID743023 (Sanford-Burnham Center for Chemical Genomics, 2013)
Activity calls are given as the source filed them.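 How the source made its calls: active means mean IC50 of 15000 nM or lower against heat shock reporter, a sign of off-target artifact; inactive means the rest.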

Tested on: C. elegans VP596 hsp-16.2 GFP/RFP heat-shock reporter fluorescence
Assay: inhibitors of hsp-16.2 induction by heat – whole organism, C. elegans VP596, GFP/RFP ratio, round 3, counter-screen for SKN-1 inhibitor project, SAR follow-up (AID 743023)

Row | SMILES | IC50
1 | FC(F)(F)c1ccc(-c2csc(-c3ccncc3)n2)cc1 | > 64 µM (inactive)
2 | COc1ccc(-c2csc(-c3ccncc3)n2)cc1 | > 64 µM (inactive)
3 | Clc1ccc(-c2csc(-c3cccnc3)n2)cc1 | > 64 µM (inactive)
4 | CCCc1cc(-c2nc(-c3ccc(NS(C)(=O)=O)cc3)cs2)ccn1 | > 64 µM (inactive)
5 | Cc1ccc(-c2csc(-c3ccncc3)n2)cc1 | > 64 µM (inactive)
6 | N#Cc1ccc(-c2csc(-c3ccncc3)n2)cc1 | > 64 µM (inactive)
7 | Cc1cccc(-c2csc(-c3ccncc3)n2)c1 | > 64 µM (inactive)
8 | c1ccc(-c2nc(-c3cccnc3)cs2)cc1 | > 64 µM (inactive)
9 | COc1ccc(-c2csc(-c3ccccc3)n2)cc1 | > 64 µM (inactive)
10 | Fc1ccc(-c2csc(-c3ccncc3)n2)cc1 | > 64 µM (inactive)
11 | Cc1ccc(-c2csc(C3CCNCC3)n2)cc1 | > 64 µM (inactive)
12 | Clc1ccc(-c2csc(-c3ccccc3)n2)cc1 | > 64 µM (inactive)
13 | Cc1ccc(-c2csc(-c3ccccc3)n2)cc1 | > 64 µM (inactive)
14 | Clc1cccc(-c2csc(-c3ccncc3)n2)c1 | > 64 µM (inactive)
15 | Cc1sc(-c2ccncc2)nc1-c1ccccc1 | > 64 µM (inactive)
16 | Cc1ccc(-c2csc(-c3ccccn3)n2)cc1 | > 64 µM (inactive)
17 | Cc1ccc(-c2csc(-c3cccnc3)n2)cc1 | > 64 µM (inactive)
18 | Clc1ccc(-c2csc(-c3ccncc3)n2)cc1Cl | > 64 µM (inactive)
19 | Fc1ccc(-c2csc(-c3ccccc3)n2)cc1 | > 64 µM (inactive)
20 | Fc1ccc(-c2csc(C3CCNCC3)n2)cc1 | > 64 µM (inactive)
21 | COc1ccccc1-c1csc(-c2ccncc2)n1 | > 64 µM (inactive)
22 | Fc1ccc(-c2csc(-c3ccccn3)n2)cc1 | > 64 µM (inactive)
23 | c1cc(-c2nc(-c3nccs3)cs2)ccn1 | > 64 µM (inactive)
24 | Cc1ccccc1-c1csc(-c2ccncc2)n1 | > 64 µM (inactive)

Row | SMILES | IC50
25 | Cc1ccc(-c2nc(-c3ccncc3)sc2C)cc1 | > 64 µM (inactive)
26 | Cc1csc(-c2ccncc2)n1 | > 64 µM (inactive)
27 | COC(=O)c1ccc(-c2csc(-c3ccncc3)n2)cc1 | > 64 µM (inactive)
28 | c1cc(-c2nc(C3CC3)cs2)ccn1 | > 64 µM (inactive)
29 | COc1ccc(-c2csc(-c3cccnc3)n2)cc1 | > 64 µM (inactive)
30 | COc1ccc(-c2csc(C3CCNCC3)n2)cc1 | > 64 µM (inactive)
31 | COc1ccc(-c2csc(-c3ccccn3)n2)cc1 | > 64 µM (inactive)
32 | c1ccc(-c2csc(-c3ccccn3)n2)cc1 | > 64 µM (inactive)
33 | Clc1ccc(-c2csc(C3CCNCC3)n2)cc1 | > 64 µM (inactive)
34 | COc1ccc(-c2nc(-c3ccncc3)sc2C)cc1 | > 64 µM (inactive)
35 | Clc1ccc(-c2csc(-c3ccccn3)n2)cc1 | > 64 µM (inactive)
36 | Cc1sc(C2CCNCC2)nc1-c1ccccc1 | > 64 µM (inactive)
37 | Fc1ccc(-c2csc(-c3cccnc3)n2)cc1 | > 64 µM (inactive)
38 | Clc1ccc(-c2csc(-c3ccncc3)n2)c(Cl)c1 | > 64 µM (inactive)
39 | Clc1ccccc1-c1csc(-c2ccncc2)n1 | > 64 µM (inactive)
40 | Clc1ccc(-c2csc(-c3ccncc3)n2)cc1 | > 64 µM (inactive)
41 | c1ccc(-c2csc(-c3cccnc3)n2)cc1 | > 64 µM (inactive)
42 | COc1cccc(-c2csc(-c3ccncc3)n2)c1 | > 64 µM (inactive)
43 | Cc1sc(-c2ccncc2)nc1-c1ccc(Cl)cc1 | > 64 µM (inactive)
44 | c1ccc(-c2csc(-c3ccncc3)n2)cc1 | > 64 µM (inactive)
45 | c1ccc(-c2csc(C3CCNCC3)n2)cc1 | > 64 µM (inactive)
46 | CCCc1cc(-c2nc(-c3ccc(C)cc3)cs2)ccn1 | > 64 µM (inactive)
47 | CC(C)(C)c1csc(-c2ccncc2)n1 | > 64 µM (inactive)
48 | Cc1sc(-c2ccncc2)nc1-c1ccc(F)cc1 | > 64 µM (inactive)
